Where “and” joins values, the source holds several entries; their conditions need not be identical. Identical values can stand only once. Toxic doses and inconclusive results are not listed. How the source made its calls: active means survival T/C of 150% or more; inactive means T/C below 125% in these data.
System: BDF1 mice, P388 leukemia ip, median survival T/C
Test: NCI In Vivo Anticancer Drug Screen. Data for tumor model P388 Leukemia (intraperitoneal) in B6D2F1 (BDF1) mice
Conditions: endpoint: median survival time, higher = longer survival
Summary of the method: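 Steps: implant the tumour, treat one group with compound and another with vehicle, record survival, then divide treated by control.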

[1] = dose: 25.0 mg/kg/injection, schedule: Q01DX009 (ip), vehicle: water
[2] = dose: 50.0 mg/kg/injection, schedule: Q01DX009 (ip), vehicle: water
[3] = dose: 100.0 mg/kg/injection, schedule: Q01DX009 (ip), vehicle: water
[4] = dose: 100.0 mg/kg/injection, schedule: Q04DX003 (ip), vehicle: water
[5] = dose: 200.0 mg/kg/injection, schedule: Q01DX009 (ip), vehicle: water
[6] = dose: 200.0 mg/kg/injection, schedule: Q04DX003 (ip), vehicle: water
[7] = dose: 400.0 mg/kg/injection, schedule: Q01DX009 (ip), vehicle: water
[8] = dose: 400.0 mg/kg/injection, schedule: Q04DX003 (ip), vehicle: water
[9] = dose: 100.0 mg/kg/injection, schedule: Q01DX001 (ip), vehicle: Klucel (hydroxypropylcellulose) (HPC)
[10] = dose: 200.0 mg/kg/injection, schedule: Q01DX001 (ip), vehicle: Klucel (hydroxypropylcellulose) (HPC)
[11] = dose: 400.0 mg/kg/injection, schedule: Q01DX001 (ip), vehicle: Klucel (hydroxypropylcellulose) (HPC)
[12] = dose: 12.5 mg/kg/injection, schedule: Q01DX009 (ip), vehicle: saline
[13] = dose: 25.0 mg/kg/injection, schedule: Q01DX009 (ip), vehicle: saline
[14] = dose: 50.0 mg/kg/injection, schedule: Q01DX009 (ip), vehicle: saline with Tween-80
[15] = dose: 50.0 mg/kg/injection, schedule: Q01DX009 (ip), vehicle: saline
[16] = dose: 25.0 mg/kg/injection, schedule: Q01DX009 (ip), vehicle: saline with Tween-80
[17] = dose: 100.0 mg/kg/injection, schedule: Q01DX009 (ip), vehicle: saline
[18] = dose: 0.75 mg/kg/injection, schedule: Q01DX009 (ip), vehicle: Klucel (hydroxypropylcellulose) (HPC)
[19] = dose: 1.5 mg/kg/injection, schedule: Q01DX009 (ip), vehicle: Klucel (hydroxypropylcellulose) (HPC)
[20] = dose: 3.0 mg/kg/injection, schedule: Q01DX009 (ip), vehicle: Klucel (hydroxypropylcellulose) (HPC)
[21] = dose: 6.0 mg/kg/injection, schedule: Q01DX009 (ip), vehicle: Klucel (hydroxypropylcellulose) (HPC)
[22] = dose: 6.25 mg/kg/injection, schedule: Q01DX009 (ip), vehicle: saline
[23] = dose: 6.25 mg/kg/injection, schedule: Q04DX003 (ip), vehicle: saline
[24] = dose: 12.5 mg/kg/injection, schedule: Q04DX003 (ip), vehicle: saline
[25] = dose: 25.0 mg/kg/injection, schedule: Q04DX003 (ip), vehicle: saline
[26] = dose: 100.0 mg/kg/injection, schedule: Q01DX009 (ip), vehicle: saline with Tween-80
[27] = dose: 100.0 mg/kg/injection, schedule: Q04DX003 (ip), vehicle: saline with Tween-80
[28] = dose: 200.0 mg/kg/injection, schedule: Q01DX009 (ip), vehicle: saline with Tween-80
[29] = dose: 200.0 mg/kg/injection, schedule: Q04DX003 (ip), vehicle: saline with Tween-80
[30] = dose: 400.0 mg/kg/injection, schedule: Q04DX003 (ip), vehicle: saline with Tween-80

Measured: T/C

O=C(NC1CSSC1)C(Cc1ccccc1)N1C(=O)c2ccccc2C1=O (stereo not drawn)
inactive: [1] 104 % of control | dose: 25.0 mg/kg/injection, schedule: Q04DX003 (ip), vehicle: water 90 % of control | [2] 95 % of control | dose: 50.0 mg/kg/injection, schedule: Q04DX003 (ip), vehicle: water 107 % of control | [3] 108 % of control | [4] 98 % of control | [5] 108 % of control | [6] 100 % of control | [7] 100 % of control | [8] 98 % of control

N#Cc1cccc(/C=C/C=C\c2ccc([N+](=O)[O-])cc2)c1
inactive: [9] 95 % of control | [10] 90 % of control | [11] 90 % of control

CCCCCCC(N)C(C)O (stereo not drawn)
inactive: [12] 105 % of control | [13] 100 % of control | [14] 101 % of control | [15] 105 % of control

Nc1nccnc1C(=O)O
inactive: dose: 12.5 mg/kg/injection, schedule: Q01DX009 (ip), vehicle: water 102 % of control | [1] 109 % of control | [2] 117 % of control | [3] 105 % of control | [6] 101 % of control | dose: 300.0 mg/kg/injection, schedule: Q04DX003 (ip), vehicle: water 110 % of control | [7] 109 % of control | [8] 105 % of control | dose: 600.0 mg/kg/injection, schedule: Q04DX003 (ip), vehicle: water 100 % of control

COc1cccc(/C=N/NC(=O)C[n+]2ccccc2)c1OC
inactive: dose: 12.5 mg/kg/injection, schedule: Q01DX009 (ip), vehicle: saline with Tween-80 104 % of control | [16] 100 % of control | [14] 104 % of control | dose: 50.0 mg/kg/injection, schedule: Q04DX003 (ip), vehicle: saline with Tween-80 100 % of control

CN(C)CC(C)(C)CO
inactive: [13] 96 % of control | [15] 106 % of control | [17] 101 % of control | dose: 200.0 mg/kg/injection, schedule: Q01DX009 (ip), vehicle: saline 107 % of control

C[n+]1c(/C=C\C=C\N2CCCCC2)sc2ccccc21
inactive: dose: 0.16 mg/kg/injection, schedule: Q01DX009 (ip), vehicle: Klucel (hydroxypropylcellulose) (HPC) 114 % of control | dose: 0.31 mg/kg/injection, schedule: Q01DX009 (ip), vehicle: Klucel (hydroxypropylcellulose) (HPC) 108 % of control | dose: 0.63 mg/kg/injection, schedule: Q01DX009 (ip), vehicle: Klucel (hydroxypropylcellulose) (HPC) 119 % of control

O=[N+]([O-])c1ccc(N2CCN(c3ccc(Cl)cc3)CC2)c2c1no[n+]2[O-]
inactive: dose: 15.0 mg/kg/injection, schedule: Q01DX009 (ip), vehicle: saline with Tween-80 100 % of control | dose: 30.0 mg/kg/injection, schedule: Q01DX009 (ip), vehicle: saline with Tween-80 99 % of control | dose: 60.0 mg/kg/injection, schedule: Q01DX009 (ip), vehicle: saline with Tween-80 99 % of control

CC1=C/C(O)CC(=O)Cc2nc(co2)C(=O)N2CCC=C2C(=O)OC(C(C)C)C(C)/C=C\C(=O)NC/C=C\1 (stereo not drawn)
inactive: dose: 100.0 mg/kg/injection, schedule: Q01DX009 (ip), vehicle: Klucel (hydroxypropylcellulose) (HPC) 118 % of control | dose: 0.5 micrograms/kg/injection, schedule: Q01DX009 (ip), vehicle: saline 105 % of control | dose: 1.0 micrograms/kg/injection, schedule: Q01DX009 (ip), vehicle: saline 101 % of control | dose: 2.0 micrograms/kg/injection, schedule: Q01DX009 (ip), vehicle: saline 108 % of control | dose: 4.0 micrograms/kg/injection, schedule: Q01DX009 (ip), vehicle: saline 101 % of control

COc1ccc(/C(=N/N)C(C)(C)C)cc1
inactive: [14] 88 % of control

CCC[CH2][Sn-]([CH2]CCC)([CH2]CCC)[O]c1cc(Cl)c(Cl)cc1Cl
inactive: dose: 0.37 mg/kg/injection, schedule: Q01DX009 (ip), vehicle: Klucel (hydroxypropylcellulose) (HPC) 100 % of control | [18] 100 % of control | [19] 100 % of control | [20] 110 % of control | [21] 89 % of control

O=C(O)C(O)C(O)C(=O)O.O=C(O)C(O)C(O)C(=O)O.[O]=[V].[O]=[V] (stereo not drawn)
inactive: dose: 3.13 mg/kg/injection, schedule: Q01DX009 (ip), vehicle: saline 110 % of control | [22] 90 % of control and 100 % of control | [23] 100 % of control | [12] 95 % of control and 100 % of control | [24] 95 % of control and 100 % of control | [13] 90 % of control and 88 % of control | [25] 100 % of control

CC(=O)N(C(C)=O)c1ccc(N=Nc2ccccc2C)cc1C
inactive: [14] 90 % of control | [26] 90 % of control | [27] 95 % of control | [28] 86 % of control | [29] 100 % of control | [30] 100 % of control

c1ccc(Sc2c(Sc3ccccc3)c(Sc3ccccc3)c(Sc3ccccc3)c(Sc3ccccc3)c2Sc2ccccc2)cc1
inactive: [27] 99 % of control | [29] 101 % of control | [30] 90 % of control

CCCCCC[P+](c1ccccc1)(c1ccccc1)c1ccccc1
inactive: [22] 114 % of control | [23] 109 % of control | [12] 92 % of control | [24] 104 % of control

CCc1nc2ccccc2c(=O)n1C
inactive: [14] 101 % of control | [28] 101 % of control

CCOC(=O)c1ccccn1
inactive: [12] 108 % of control | [16] 112 % of control | [13] 105 % of control | [14] 121 % of control | [15] 94 % of control | [26] 105 % of control | [17] 103 % of control | [28] 110 % of control

Cn1ncc2c(N)ncnc21
inactive: [18] 100 % of control | [19] 100 % of control | [20] 109 % of control | [21] 122 % of control

COc1ccc(C(c2ccc(OC)cc2)C(Cl)(Cl)Cl)cc1
inactive: [9] 104 % of control | [10] 100 % of control | [11] 100 % of control

Nc1ccccc1SC1CC(=O)N(c2ccc(Br)c(Cl)c2)C1=O (stereo not drawn)
inactive: dose: 0.1 mg/kg/injection, schedule: Q01DX005 (ip), vehicle: saline with Tween-80 98 % of control | dose: 0.2 mg/kg/injection, schedule: Q01DX005 (ip), vehicle: saline with Tween-80 93 % of control | dose: 0.4 mg/kg/injection, schedule: Q01DX005 (ip), vehicle: saline with Tween-80 100 % of control | dose: 1.5 mg/kg/injection, schedule: Q01DX005 (ip), vehicle: saline with Tween-80 95 % of control | dose: 3.0 mg/kg/injection, schedule: Q01DX005 (ip), vehicle: saline with Tween-80 90 % of control

Cn1c[n+](C)ccc1=O
inactive: [3] 97 % of control | [4] 91 % of control | [5] 107 % of control | [6] 88 % of control | [7] 97 % of control | [8] 89 % of control

O=C(c1ccccn1)C12CC3CC(CC(C3)C1)C2
inactive: [27] 95 % of control | [29] 105 % of control | [30] 95 % of control

O=C(Cn1ccc(=O)[nH]c1=O)Nc1nccs1
inactive: dose: 3.12 mg/kg/injection, schedule: Q04DX003 (ip), vehicle: saline 93 % of control | [23] 107 % of control and 121 % of control | [24] 110 % of control and 121 % of control | [25] 109 % of control and 121 % of control

O=C1CC/C(=N\O)N1
inactive: dose: 75.0 mg/kg/injection, schedule: Q01DX009 (ip), vehicle: saline 93 % of control | dose: 150.0 mg/kg/injection, schedule: Q01DX009 (ip), vehicle: saline 86 % of control

From PubChem BioAssay AID328 (DTP/NCI, 2004)
